Results: patent publication US20220339150A1, “ENDOCANNABINOID SYSTEM-TARGETING PRODRUGS AND THERAPEUTIC USES THEREOF” (priority 2021, published 2022)
≈ marks a conversion by molar mass, not a printed value. Entries after “also recorded” stand apart in the source; their conditions may differ. Where two headings read alike, the source gives them in different places.

Tests used:
[1] = Metabolic stability in human liver microsomes; type: in vitro ADME; details: for half-life at 15 µg/mL: pH 7.4, Table 3; for half-life: pH 7.4, Table 5
Method: The prodrugs were incubated with the human liver microsomes at 37° C. as an indication of the susceptibility of prodrugs to undergo bioconversion in the liver. The reactions were initiated by adding 1.5 μL of the prodrug stock solution (10 mg/mL in DMSO) to a preheated solution consisting of 748.5 μL potassium phosphate buffer solution (20 mM, pH 7.4, ionic strength 0.5), 200 μL NADPH, and 50 μLhuman liver microsomes (mixed gender, 0.5 ml at 20 mg/mL). The solutions were stirred at a constant temperature of 37° C. At appropriate intervals, 50 μLof samples were mixed with 100 μL of ice-cold MeOH. After immediate mixing and centrifugation (5 min at 14.000 rpm), the resulting clear supernatant was analyzed for the remaining prodrug by HPLC.

[2] = Aqueous solubility of CBD and solubility in various solvents; type: physicochemical
Method: CBD was dissolved in 50 mM phosphate buffer, pH 6.8, containing 10% (v/v) EtOH. Suspensions were centrifuged for 3 min at 14000 rpm. Solubilities are between 15-110 μg/ml. Some floating particles can be seen which, once dissolved, cause variation in the result. When the suspension was filtered (Millex 0.45 μm) no detectable (HPLC) CBD was found.
CBD solubility in various solvents when ca. 1 mg was dissolved in ca. 1 ml. Solutions/suspensions were centrifuged, and 100 μl of the sample was mixed with 100 μl MeOH:H2O (1:1).
The solubility of CBD in various solvents is shown below: • 1. 50% EtOH:50% H2O=ca. 1 mg/ml • 2. 15% HP-beta-CD:85% H2O=0.7 mg/ml • 3. 5% HP-beta-CD:0.5% HPMC:84.5% H2O=0.16 mg/ml • 4. 4% BSA:95% H2O=0.07 mg/ml • 5. 90% Propylene glycol:10% H2O=0.87 mg/ml • 6. 30% Solutol® HS 15:10% EtOH:60% H2O=0.96 mg/ml

[3] = system: reconstructed human epidermis cells; experiment: In vitro skin permeability (SkinEthic Episkin reconstructed human epidermis); type: in vitro ADME; details: for Skin permeation, applied compound (parent or intact prodrug): receiver 15% HP-beta-CD pH 7.4
Method: (§1) The in vitro permeability studies were carried out in commercial reconstructed human epidermis cells (SkinEthic™ Episkin Reconstructed human epidermis). This model is composed of TR146 cells (derived from a squamous cell carcinoma of the buccal mucosa) cultivated on an inert polycarbonate filter at the air-liquid interface in a chemically defined medium. This model forms an epithelial tissue devoid of stratum corneum, resembling histologically to the mucosa of the oral cavity.
Upon receiving the cells, each insert (0.5 cm^2 or 0.33 cm^2) was placed in a plate containing 800 μL fresh medium at room temperature. The culture dishes were placed in the incubator at 37° C., 5% CO2, and saturated humidity overnight. Next day, the inserts were placed in a plate containing 800 μL 15% HP-β-cyclodextrin in H2O. CBD and CBG, and prodrugs CBDp27 and CBGp1 were dissolved in two different vehicles, 1:1:1 prop gly:water:EtOH/6% Brij 98, and 100% mineral oil. The receiver solution was 15% HP-beta-CD in phosphate buffer (pH 7.4). 400 μL the prodrugs were applied as suspensions (ca. 2 mg/ml). The plates were stirred gently at 37° C. At appropriate intervals, the receptor compartment was sampled (100 μL) and replenished with fresh […] solution each time. The samples were mixed with 100 μL of MeOH, and analyzed for drug (both the parent drug and prodrug) by HPLC-MS.
The flux-values for the rate of delivery of drugs were determined from Fick's law of diffusion.

[4] = Stability in aqueous solutions (sodium phosphate buffer, 37° C.); type: physicochemical; details: for half-life: buffer, read-out: Half-life in aqueous solution (converted)
Method: […] The solutions of prodrugs were prepared by adding 10 μL of stock solution (10 mg/mL in DMSO) to the preheated buffer. The solutions were stirred at a constant temperature of 37° C. At appropriate intervals, 75 μL of samples were mixed with 75 μL of MeOH and analyzed for remaining prodrug by HPLC.
The pseudo-first-order rate constants (kobs) and half-lives (t1/2) for the degradation of the prodrugs were determined from the linear slopes of the plots by taking the logarithm of the remaining prodrug over time. Equations: kobs=slope/−2.303 and t1/2=ln2/kobs.

[5] = Stability in 80% human plasma (serum); type: in vitro ADME; details: 80% human serum (pH 7.4) at 37° C.
Method: The rates of the degradation of the prodrugs were determined in 80% human serum (pH 7.4) at 37° C. as an indication of the susceptibility of prodrugs to undergo bioconversion after reaching the circulation. The reactions were initiated by adding the first 10 μL of the prodrug stock solution (10 mg/mL in DMSO) to 200 μL preheated sodium phosphate buffer solution (50 mM, pH 7.4, ionic strength 0.5), and then adding 800 μL preheated human serum. The solutions were stirred at a constant temperature of 37° C. At appropriate intervals, 50 μL of samples were mixed with 150 μL of ice-cold MeOH. After immediate mixing and centrifugation (5 min at 14.000 rpm), the resulting clear supernatant was analyzed for the remaining prodrug by HPLC.

[6] = system: reconstructed human oral buccal epithelium cells (SkinEthic HOE, TR146 cells); experiment: In vitro buccal permeability (SkinEthic human oral epithelium); type: in vitro ADME
Method: as §1, with “oral buccal epithelium” for “epidermis”, “(SkinEthic™” for “(SkinEthic™ Episkin Reconstructed”, “oral epithelium). The SkinEthic™ HOE” for “epidermis). This”
Upon receiving the cells, each insert (0.5 cm^2 or 0.33 cm^2) was placed in a plate containing 800 μL fresh medium at room temperature. The culture dishes were placed in the incubator at 37° C., 5% CO2, and saturated humidity overnight. Next day, the inserts were placed in a plate containing 800 μL 15% HP-β-cyclodextrin in H2O. The prodrugs were dissolved in 100% EtOH (5% (V/V) final conc.), and then sodium phosphate buffer solution (50 mM, pH 6.8, isotonic, 37° C.) was added (95% (V/V) final conc.). 400 μL of the prodrugs were applied as suspensions (ca. 2 mg/ml). The plates were stirred gently at 37° C. At appropriate intervals, the receptor compartment was sampled (100 μL) and replenished with fresh […] solution each time. The samples were mixed with 100 μL of MeOH, and analyzed for drug (both the parent cannabinoid and the prodrug) by HPLC-MS.
The buccal flux-values for the rate of delivery of drugs were determined from Fick's law of diffusion.

[7] = both sexes, human, microsomes, 37° C., NADPH, read-out: Half-life in human liver microsomes (single determinations) (converted)
[8] = both sexes, human, microsomes, average of determinations, read-out: Half-life in human liver microsomes (avg.) (converted)
[9] = vehicle solvent mix (1:1:1 prop gly:water:EtOH/6% Brij 98)

## C=C(C)[C@@H]1CCC(C)=C[C@H]1c1c(O)cc(CCCCC)cc1O [CBD, Cannabidiol]
[1]; Table 3, 37° C., NADPH
  Half-life in human liver microsomes (single determinations): 0.39 h
[1]; [7]
  half-life at 15 µg/mL: 36 min
[1]; [8]
  half-life at 15 µg/mL: 30 min
[1]; both sexes, human, microsomes, pH 7.4, Table 3, CLint = k/P, protein 1 mg, read-out: Intrinsic clearance CLint
  microsomal CLint at 15 µg/mL: 23.1 µL/min/mg
[2]; 50 mM phosphate buffer, pH 6.8, 10% EtOH, suspension filtered (Millex 0.45 μm)
  Solubility after filtration (HPLC): no detectable
[2]; 15% HP-beta-CD:85% H2O, ca. 1 mg in ca. 1 ml
  solubility: 700 µg/mL (≈ 2230 µM)
[2]; aqueous with cosolvent or surfactant or cyclodextrin, thermodynamic from solid, 4% BSA:95% H2O, ca. 1 mg in ca. 1 ml, read-out: Solubility
  solubility: 70 µg/mL (≈ 223 µM)
[2]; aqueous with cosolvent or surfactant or cyclodextrin, thermodynamic from solid, 5% HP-beta-CD:0.5% HPMC:84.5% H2O, ca. 1 mg in ca. 1 ml, read-out: Solubility
  solubility: 160 µg/mL (≈ 509 µM)
[2]; aqueous with cosolvent or surfactant or cyclodextrin, thermodynamic from solid, 30% Solutol HS 15:10% EtOH:60% H2O, ca. 1 mg in ca. 1 ml, read-out: Solubility
  solubility: 960 µg/mL (≈ 3050 µM)
[2]; aqueous with cosolvent or surfactant or cyclodextrin, thermodynamic from solid, 50% EtOH:50% H2O, ca. 1 mg in ca. 1 ml, read-out: Solubility
  solubility: ~1000 µg/mL (≈ 3180 µM)
[2]; organic solvent or mixture, thermodynamic from solid, 90% Propylene glycol:10% H2O, ca. 1 mg in ca. 1 ml, read-out: Solubility
  solubility: 870 µg/mL (≈ 2770 µM)
[2]; phosphate buffer with 10% (v/v) ethanol, aqueous with cosolvent or surfactant or cyclodextrin, thermodynamic from solid, 50 mM phosphate buffer, pH 6.8, 10% (v/v) EtOH, suspension centrifuged, read-out: Solubility
  solubility: 15 to 110 µg/mL (≈ 47.7 to 350 µM)
[3]; vehicle mineral oil
  Skin permeation, applied compound (parent or intact prodrug): 0.0233 ± 0.007 nmol/cm^2/h
[3]; [9]
  Skin permeation, applied compound (parent or intact prodrug): 1.16 ± 0.12 nmol/cm^2/h

## C=C(C)[C@@H]1CCC(C)=C[C@H]1c1c(O)cc(CCCCC)cc1OC(=O)NCCN(C)C [CBDp27, (1′R,2′R)-6-hydroxy-5′-methyl-4-pentyl-2′-(prop-1-en-2-yl)-1′,2′,3′,4′-tetrahydro-[1,1′-biphenyl]-2-yl (2-(dimethylamino)ethyl)carbamate]
[4]; Table 3, aqueous buffer pH 6.8, 37° C.
  Half-life in aqueous solution: 10.2 min
[4]; Table 3, pH 3
  Half-life in aqueous solution: (pH 3 = stable,
[4]; Table 3, pH 4
  Half-life in aqueous solution: pH 4 = stable,
[4]; Table 3, pH 5
  Half-life in aqueous solution: pH 5 = stable,
[4]; pH 6.8, Table 3, aqueous buffer pH 6.8, 37° C.
  half-life: 8.4 min
[4]; pH 7.4, Table 3, pH 7.4
  half-life: 52.2 min
[4]; pH 8, Table 3, pH 8
  half-life: 65.4 min
[4]; pH 9, Table 3, pH 9
  half-life: 98.4 min
[5]; Table 3
  Half-life in serum: stable
[1]; Table 3, 37° C., NADPH
  Half-life in human liver microsomes (single determinations): 3.13; 3.13 h
[1]; [7]
  half-life at 15 µg/mL: 188 min
[1]; [8]
  half-life at 15 µg/mL: 188 min
[6]; 5% ethanol suspension
  Buccal permeation compared with parent cannabinoid (in words): better than that of CBD; also recorded: superior when compared to CBD and other prodrugs
[6]; Table 2, remark in flux cell
  Species making up the buccal flux (parent vs intact prodrug): CBD + prodrug
[3]; mineral oil
  Skin permeation of prodrug relative to parent cannabinoid: ~140 fold
[3]; solvent mix
  Skin permeation of prodrug relative to parent cannabinoid: ~40 fold
[3]; vehicle mineral oil
  Skin permeation, applied compound (parent or intact prodrug): 3.28 ± 0.15 nmol/cm^2/h
[3]; [9]
  Skin permeation, applied compound (parent or intact prodrug): 47.42 ± 5.23 nmol/cm^2/h

## CCCCCc1cc(O)c(C/C=C(\C)CCC=C(C)C)c(OC(=O)C2CCNC2)c1 (stereo not drawn) [CBGp1, (E)-2-(3,7-dimethylocta-2,6-dien-1-yl)-3-hydroxy-5-pentylphenyl pyrrolidine-3-carboxylate]
[4]; Table 5, aqueous buffer pH 6.8, 37° C., single determinations
  Half-life in aqueous solution: 32.4 min
[4]; pH 6.8, Table 5, aqueous buffer pH 6.8, 37° C., single determinations
  half-life: 30 min
[5]; Table 5
  Half-life in serum: 44.4 min
[5]; human, serum, pH 7.4, Table 5
  half-life: 42 min
[1]; Table 5, 37° C., NADPH
  Half-life in human liver microsomes (single determinations): 0.67 h
[1]; [7]
  half-life: 38.4 min
[1]; [8]
  half-life: 39.6 min
[6]; Table 4, remark in flux cell
  Species making up the buccal flux / formation of parent cannabinoid: (CBG + prodrug)
[6]; Table 4, suspension ca. 2 mg/ml in 5% EtOH/phosphate buffer pH 6.8, 37° C., receiver 15% HP-β-cyclodextrin
  Flux (buccal): 111.79 ± 2.59 nmol/cm^2/h
[3]; mineral oil
  Skin permeation of prodrug relative to parent cannabinoid: ~13 fold
[3]; solvent mix
  Skin permeation of prodrug relative to parent cannabinoid: > 300 fold
[3]; vehicle mineral oil
  Skin permeation, applied compound (parent or intact prodrug): 0.54 ± 0.19 nmol/cm^2/h
[3]; [9]
  Skin permeation, applied compound (parent or intact prodrug): 148.0 ± 40.9 nmol/cm^2/h
